Source: patent US6667157B1, “Compositions and methods for the abrogation of cellular proliferation utilizing the human immunodeficiency virus VPR protein” (priority 1994, dated 2003)

Columns and labels:
HIV LTR = test: LTR-CAT assay in RD cells transfected with pBennCAT; format: cell-based, HIV-1; details: for increase in CAT activity over the controls: agent added to medium of LTR-CAT transfected RD cells, harvested 48 hours later
Protocol: Induction of the HIV-LTR was measured as a function of a reporter gene (CAT) function. pBennCAT, an LTR-CAT encoding construct, obtained from M. Martin, through the NIH ARRRP was used. The levels of CAT protein were measured using a CAT ELISA capture assay (Boehringer Mannheim), following manufacturer's specifications. The levels of CAT activity were measured by a chloramphenicol acetyltransferase assay, according to published procedures (Gorman, et al., 1982, The Rous sarcoma virus long terminal repeat is a strong promoter when introduced into a variety of eukaryotic cells by DNA mediated transfection. Proc. Natl. Acad. Sci. USA. 79, 6777-6781). Briefly, RD cells were transfected with pBennCAT (Gendelman, 1986, Trans-activation of the Human immunodeficiency virus long terminal repeat sequence by DNA viruses. Proc. Natl. Acad. Sci. USA. 83, 9759-9763), using DOTAP. Cells were washed 12 hours later and new medium, containing the test reagents was added to the cell monolayers. 48 hours later, cells were washed three times with Ca+2/Mg+2 free PBS. Cells were then scraped off the plate, and collected with 1 ml PBS. Cell pellets were lysed by resuspending them in 100 μl 0.25M Tris, pH 7.8, and undergoing three freeze-thaw cycles using an ethanol-dry ice bath, and a 37° C. water bath. Lysates were spun at 12,000 G for 5 minutes and samples were stored at −20° C. until they were used. The CAT reaction was set up using 5 μl C^14 chloramphenicol (40-50 mCi/mmole), 70 μl ddH2O, 35 μl 1M Tris, pH 7.8, 20 μl 4 mM acetyl Coa (Pharmacia), 20 μl cell lysate. The reactions were incubated at 37° C. for an hour, and subsequently extracted with 1 ml ethyl acetate. After resuspension in 20 μl ethyl acetate, samples were spotted on the silica gel TLC plates (Whatman), and developed in chloroform:methanol (95:5); ascending. Gels were dried and exposed to film (Kodak XAR) overnight at room temperature. The panel of HIV-1 LTR/CAT mutants were obtained from Dr. Joseph Stevens, through the NIH ARRRP. pGRE5/CAT was obtained from United States Biochemicals.
The possibility that activation of the GR pathway could play a central role in the viral transcription process was considered. To test this, RD cells were transfected with an LTR-CAT encoding plasmid (pBennCAT) (Gendelman, 1986, supra), without selection. 12 hours later, the cell monolayers were washed and fresh medium containing the test reagents was added to the cultures, and 48 hours later the cells were harvested. In these studies, the co-transfection of a vpr encoding plasmid with the LTR-CAT encoding plasmid produced an increase in CAT activity of 5-10 fold over the controls, as has been previously reported. […] Vpr protein was detected in the tissue culture media of these cells, as assessed by capture ELISA.

rip-1 = rip-1 cytoplasmic to nuclear translocation (cellular fractionation, vpr-ligand blot); format: cell-based; details: for nuclear translocation of rip-1: exposure of cells to agent, steroids at 10^−6M
Protocol: 3×10^6 cells were washed twice in PBS, and lysed in 200 μl of lysis buffer (150 mM NaCl, 50 mM Tris, pH 8.0, 0.5% Triton X-100, plus protease inhibitors: aprotinin, leupeptin, pepstatin A, each at 2 μg/ml; PMSF, 1 mM, and EDTA, 1 mM). Cell suspension was incubated on ice for 10 minutes with frequent vortexing, and centrifuged at 12000 g for 6 minutes. The soluble, as well as the insoluble fractions were run on 12% SDS-PAGE, and transferred to PVDF membranes (Millipore), as described. Membranes were blocked with 5% non fat dry milk, in TBS supplemented with 0.05% Tween-20. Blocked membranes were incubated with either purified vpr protein (approximately 50 ng/ml) or an irrelevant protein. These membranes were then incubated with 808 rabbit anti vpr antiserum Levy, et al. 1994b, supra, followed by I^125 protein G (NEN), and exposed to film for at least 12 hours at −80° C.

HIV-1 NL43 Δvpr = test: Complementation in trans of HIV-1 NL43 Δvpr in nonproductively infected U937 cells (virus production); format: cell-based; details: for complementation in trans of HIV-1 NL43 Δvpr virus: agent added to tissue culture medium of nonproductively infected U937 cells
Protocol: (§1) The following cell lines were obtained from the American Type Culture Collection; TE671 human embryonal rhabdomyosarcoma (ATCC HTB139), A673 embryonal rhabdomyosarcoma (ATCC CRL 1598), D17 canine osteosarcoma (ATCC CCL183), HOS human osteosarcoma (ATCC CRL 1543), U373 human glioblastoma (ATCC HTB17), SK-N-MC neuroblastoma (ATCC HTB10). Two additional glioblastoma lines were kindly provided by the Medical Research Council (MRC), England, (HT17 and HT16). U87MG (HTB14) is a glial cell line obtained from the University of Pennsylvania Cell Center. RD rhabdomyosarcoma cells were provided by Dr. A. Srinivasan. The T lymphocytic cells H9 and SupT-I were obtained from the University of Pennsylvania Cell Center, and KG-1 was obtained from Dr. G. Trinchieri. The murine NIH 3T3 line was obtained from ATCC. BSC-1, CV-1 and COS cell lines were obtained Dr. B. Moss. Primary PBL as well as primary monocytes/macrophages were isolated as in Levy, et al. 1994b, supra. All non-hematopoietic cells were cultured in DMEM with 10% heat inactivated fetal calf serum, penicillin/streptomycin, I-glutamine, Hepes (25 mM) and sodium pyruvate. Hematopoietic cells were cultured in RPMl 1640 as above except using 10% autologous human serum. Virus were prepared as described in Levy, et al., 1994b, supra; Levy, et al., 1994a, supra, which are incorporated herein by reference.
The rabbit anti-vpr peptide serum (aa 2-21, “808”) was obtained from Bryan Cullen through the NIH ARRRP. The human anti-gag p24 (V7.8) was obtained from Ronald Kennedy through the NIH ARRRP. The sheep anti-p24 was obtained from the FDA through the NIH ARRRP. […]
Such nonproductively infected cells can be rescued for p24 production by addition of exogenous vpr protein (Levy, et al., 1994a, supra; Levy, et al., 1994b, supra). […] When the nonproductively infected U937 cells described above were exposed to vpr protein, rip-1 translocated 12 hours later, and virus was first detected in the media 36 hours after the initial exposure to vpr. […]

HIV-1 NL43 = test: Virus production by HIV-1 NL43 infected U937 cells; format: cell-based
Protocol: as §1, with “reference. […]” for “reference.”

| Compound | increase in CAT activity over the controls (HIV LTR) | nuclear translocation of rip-1 (rip-1) | complementation in trans of HIV-1 NL43 Δvpr virus (HIV-1 NL43 Δvpr) | other results |
| --- | --- | --- | --- | --- |
| C[C@@H]1C[C@H]2[C@@H]3CCC4=CC(=O)C=C[C@]4(C)[C@@]3(F)[C@@H](O)C[C@]2(C)[C@@]1(O)C(=O)CO [Dexamethasone] | ca. 50 fold |  |  |  |
| C[C@]12CCC(=O)C=C1CC[C@@H]1[C@@H]2[C@@H](O)C[C@@]2(C)[C@H]1CC[C@]2(O)C(=O)CO [Hydrocortisone] | ca. 50 fold | induced the nuclear translocation of rip-1 | complemented in trans |  |
| CCCCCCCCCCCCCC(=O)O[C@@H]1[C@@H](C)[C@@]2(O)[C@@H](C=C(CO)C[C@]3(O)C(=O)C(C)=C[C@@H]23)[C@@H]2C(C)(C)[C@]12OC(C)=O [PMA] |  | not |  |  |
| CC#C[C@]1(O)CC[C@H]2[C@@H]3CCC4=CC(=O)CCC4=C3[C@@H](c3ccc(N(C)C)cc3)C[C@@]21C [mifepristone] |  |  |  | effect on vpr induced translocation of rip-1 (rip-1; mifepristone 10^−6M): inhibited; effect on rip-1 nuclear translocation induced by Dexamethasone and Hydrocortisone (rip-1; mifepristone added to culture medium, 10^−6M): blocked; effect on transcomplementation of HIV-1 NL43 Δvpr infected U937 cells by vpr protein (HIV-1 NL43 Δvpr; mifepristone treatment): abolished; levels of virus produced, lower than the untreated cultures (HIV-1 NL43; HIV-1 infected cells exposed to mifepristone, 10^−6M): about 70%; inhibition of the enhancement in virus production by addition of vpr protein (HIV-1 NL43; infected cells plus vpr protein, mifepristone 10^−6M): 80-90 % inhibition; effect on increase in CAT activity stimulated by vpr protein or steroids (HIV LTR; cultures supplemented with mifepristone): inhibited; effect on increase in CAT activity in cells cotransfected with vpr encoding plasmid and LTR-CAT plasmid (HIV LTR; mifepristone): blocked |
| cyclodextrin |  | failed to induce the nuclear translocation of rip-1 | not affected |  |
